# ChEMBL document CHEMBL5647694, “Novel orally bioavailable EZH1/2 dual inhibitors with greater antitumor efficacy than an EZH2 selective inhibitor” (Cancer Sci, 2017)
# How the values were obtained:
# [1] = Toxicity in Crl:CD Sprague-Dawley rat assessed as globulin level in blood at 100 mg/kg, po administered daily for 14 days (reference value: 1.6 +/-0.082 g/dL); type: organism-based; conditions: in vivo, 336 h, time 14 day
# [2] = Toxicity in Crl:CD Sprague-Dawley rat assessed as aspartate aminotransferase level in blood at 100 mg/kg, po administered daily for 14 days (reference value: 72+/-5.03 U/L); type: organism-based; conditions: in vivo, 336 h, time 14 day
# [3] = Toxicity in Crl:CD Sprague-Dawley rat assessed as triglyceride level in blood at 100 mg/kg, po administered daily for 14 days (reference value: 132 +/-30 mg/dL); type: organism-based; conditions: in vivo, 336 h, time 14 day
# [4] = Antitumor activity against human COV362 cells assessed as cell growth inhibition treated for 10 to 15 days; type: functional; conditions: time 10-15 day
# [5] = target: Histone-lysine N-methyltransferase SETD7 (Homo sapiens, UniProt Q8WTS6); assay: Inhibition of human SET7/9 using Core Histone and [3H]SAM as substrate incubated for 30 mins to 1 hr by HotSpot kinase assay
# Histone-lysine N-methyltransferase SETD7, sequence (Q8WTS6 whole entry): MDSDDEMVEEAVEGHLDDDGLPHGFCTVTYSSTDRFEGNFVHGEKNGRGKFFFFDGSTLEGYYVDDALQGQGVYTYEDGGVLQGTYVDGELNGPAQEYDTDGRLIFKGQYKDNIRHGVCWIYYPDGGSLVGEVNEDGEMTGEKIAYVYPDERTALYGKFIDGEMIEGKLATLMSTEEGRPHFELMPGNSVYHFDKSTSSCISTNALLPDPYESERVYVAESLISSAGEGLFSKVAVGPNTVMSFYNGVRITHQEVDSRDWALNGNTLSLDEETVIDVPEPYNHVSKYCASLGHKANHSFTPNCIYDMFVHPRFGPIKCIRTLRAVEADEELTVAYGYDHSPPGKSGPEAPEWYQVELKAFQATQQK
# [6] = test system: Jurkat; assay: Antitumor activity against human Jurkat cells clone E6-1 assessed as cell growth inhibition treated for 10 to 15 days; type: functional; conditions: time 10-15 day
# [7] = Antitumor activity against human BCP-1 cells assessed as cell growth inhibition treated for 10 to 15 days; type: functional; conditions: time 10-15 day
# [8] = test system: MDA-MB-415; assay: Antitumor activity against human MDA-MB-415 cells assessed as cell growth inhibition treated for 10 to 15 days; type: functional; conditions: time 10-15 day
# [9] = test system: HT1197; assay: Antitumor activity against human HT1197 cells assessed as cell growth inhibition treated for 10 to 15 days; type: functional; conditions: time 10-15 day
# [10] = test system: CWR22R; assay: Antitumor activity against human 22Rv1 cells assessed as cell growth inhibition treated for 10 to 15 days; type: functional; conditions: time 10-15 day
# [11] = Antitumor activity against human NCI-H660 cells assessed as cell growth inhibition treated for 10 to 15 days; type: functional; conditions: time 10-15 day
# [12] = target: Serine/threonine-protein kinase Sgk2 (Homo sapiens) (UniProt Q9HBY8); assay: Inhibition of N-terminal GST-fused full length human SGK2 (1 to 367 residues) expressed in baculovirus expression system using SGKtide as substrate at 1 uM in presence of ATP by Mobility shift assay
# Serine/threonine-protein kinase Sgk2 (Homo sapiens), sequence (Q9HBY8 whole entry, the tested form may be a part): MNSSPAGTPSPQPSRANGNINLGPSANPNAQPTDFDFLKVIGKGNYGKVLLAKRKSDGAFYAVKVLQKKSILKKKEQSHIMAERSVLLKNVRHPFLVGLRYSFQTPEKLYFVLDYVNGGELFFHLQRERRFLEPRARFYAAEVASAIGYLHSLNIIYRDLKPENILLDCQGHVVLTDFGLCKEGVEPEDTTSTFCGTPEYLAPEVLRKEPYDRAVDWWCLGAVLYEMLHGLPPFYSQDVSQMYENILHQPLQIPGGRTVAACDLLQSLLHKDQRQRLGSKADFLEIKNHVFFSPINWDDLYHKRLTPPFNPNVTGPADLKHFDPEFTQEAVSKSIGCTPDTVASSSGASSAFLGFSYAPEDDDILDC
# [13] = test system: SUP-T1; assay: Antitumor activity against human SUP-T1 cells assessed as cell growth inhibition treated for 10 to 15 days; type: functional; conditions: time 10-15 day
# [14] = test system: CAMA-1; assay: Antitumor activity against human CAMA-1 cells assessed as cell growth inhibition treated for 10 to 15 days; type: functional; conditions: time 10-15 day
# [15] = Antitumor activity against human SNU-840 cells assessed as cell growth inhibition treated for 10 to 15 days; type: functional; conditions: time 10-15 day
# [16] = test system: K562; assay: Antitumor activity against human K562 cells assessed as cell growth inhibition treated for 10 to 15 days; type: functional; conditions: time 10-15 day
# [17] = Antitumor activity against human CADO-ES1 cells assessed as cell growth inhibition treated for 10 to 15 days; type: functional; conditions: time 10-15 day
# [18] = target: Histone-lysine N-methyltransferase NSD2 (Homo sapiens, UniProt O96028, T1150A); assay: Inhibition of human NSD2 T1150A mutant using Nucleosomes and [3H]SAM as substrate incubated for 30 mins to 1 hr by HotSpot kinase assay
# Histone-lysine N-methyltransferase NSD2, sequence (O96028 whole entry T1150A): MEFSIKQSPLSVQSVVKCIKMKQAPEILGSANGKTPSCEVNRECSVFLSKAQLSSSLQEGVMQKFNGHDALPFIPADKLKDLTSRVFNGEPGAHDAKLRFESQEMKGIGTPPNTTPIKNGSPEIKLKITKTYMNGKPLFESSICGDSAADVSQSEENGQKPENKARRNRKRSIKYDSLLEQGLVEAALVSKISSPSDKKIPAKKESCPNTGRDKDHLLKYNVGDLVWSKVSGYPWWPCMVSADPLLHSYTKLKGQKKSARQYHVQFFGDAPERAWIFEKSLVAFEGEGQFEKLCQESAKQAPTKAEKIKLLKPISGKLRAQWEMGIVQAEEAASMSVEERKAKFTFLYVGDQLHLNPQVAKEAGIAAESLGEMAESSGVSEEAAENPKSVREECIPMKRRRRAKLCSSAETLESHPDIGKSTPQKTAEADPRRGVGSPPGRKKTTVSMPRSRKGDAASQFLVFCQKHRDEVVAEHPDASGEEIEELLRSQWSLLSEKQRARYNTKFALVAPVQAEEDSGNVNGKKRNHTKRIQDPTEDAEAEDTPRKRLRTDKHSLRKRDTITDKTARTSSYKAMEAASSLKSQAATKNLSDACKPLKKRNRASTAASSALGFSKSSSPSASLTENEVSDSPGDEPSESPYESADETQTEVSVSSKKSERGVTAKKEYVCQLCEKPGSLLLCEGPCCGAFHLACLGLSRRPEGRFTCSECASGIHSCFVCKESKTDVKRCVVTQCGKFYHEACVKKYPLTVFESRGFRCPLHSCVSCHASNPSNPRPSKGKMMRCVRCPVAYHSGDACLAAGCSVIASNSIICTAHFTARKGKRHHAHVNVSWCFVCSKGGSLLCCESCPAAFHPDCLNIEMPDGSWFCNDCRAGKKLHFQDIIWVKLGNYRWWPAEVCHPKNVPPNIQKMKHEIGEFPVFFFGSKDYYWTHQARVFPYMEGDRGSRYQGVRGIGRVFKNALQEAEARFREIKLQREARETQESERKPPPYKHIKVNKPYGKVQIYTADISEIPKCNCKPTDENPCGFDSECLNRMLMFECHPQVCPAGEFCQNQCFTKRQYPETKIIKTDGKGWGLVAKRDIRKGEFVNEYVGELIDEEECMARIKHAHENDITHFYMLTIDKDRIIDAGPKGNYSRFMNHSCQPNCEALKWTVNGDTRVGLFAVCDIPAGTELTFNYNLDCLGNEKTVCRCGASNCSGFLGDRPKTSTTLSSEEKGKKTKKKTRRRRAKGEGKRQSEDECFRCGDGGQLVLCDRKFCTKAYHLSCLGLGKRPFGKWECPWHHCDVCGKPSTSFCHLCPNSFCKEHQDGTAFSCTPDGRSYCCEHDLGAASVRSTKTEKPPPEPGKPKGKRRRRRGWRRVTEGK
# [19] = target: Protein arginine N-methyltransferase 8 (Homo sapiens, UniProt Q9NR22); assay: Inhibition of human PRMT8 using Histone H4 and [3H]SAM as substrate incubated for 30 mins to 1 hr by HotSpot kinase assay
# Protein arginine N-methyltransferase 8, sequence (Q9NR22 whole entry, the tested form may be a part): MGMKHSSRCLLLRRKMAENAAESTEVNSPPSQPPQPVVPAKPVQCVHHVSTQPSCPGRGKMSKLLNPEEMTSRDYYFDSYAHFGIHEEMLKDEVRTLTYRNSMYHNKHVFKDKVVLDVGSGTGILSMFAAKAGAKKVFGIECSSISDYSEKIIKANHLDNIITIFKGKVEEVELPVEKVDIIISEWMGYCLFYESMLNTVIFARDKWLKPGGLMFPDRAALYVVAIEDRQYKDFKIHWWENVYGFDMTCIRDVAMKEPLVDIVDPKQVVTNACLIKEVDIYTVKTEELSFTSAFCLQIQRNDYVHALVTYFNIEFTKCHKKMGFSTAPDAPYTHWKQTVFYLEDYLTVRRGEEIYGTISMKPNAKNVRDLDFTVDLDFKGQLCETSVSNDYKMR
# [20] = target: Ephrin type-B receptor 2 (Homo sapiens) (UniProt P29323); assay: Inhibition of N-terminal GST-fused human EPHB2 cytoplasmic domain (581 to 987 residues) expressed in baculovirus-infected Sf21 cells using Blk/Lyntide as substrate at 1 uM in presence of ATP by Mobility shift assay
# Ephrin type-B receptor 2 (Homo sapiens), sequence (P29323 whole entry, the tested form may be a part): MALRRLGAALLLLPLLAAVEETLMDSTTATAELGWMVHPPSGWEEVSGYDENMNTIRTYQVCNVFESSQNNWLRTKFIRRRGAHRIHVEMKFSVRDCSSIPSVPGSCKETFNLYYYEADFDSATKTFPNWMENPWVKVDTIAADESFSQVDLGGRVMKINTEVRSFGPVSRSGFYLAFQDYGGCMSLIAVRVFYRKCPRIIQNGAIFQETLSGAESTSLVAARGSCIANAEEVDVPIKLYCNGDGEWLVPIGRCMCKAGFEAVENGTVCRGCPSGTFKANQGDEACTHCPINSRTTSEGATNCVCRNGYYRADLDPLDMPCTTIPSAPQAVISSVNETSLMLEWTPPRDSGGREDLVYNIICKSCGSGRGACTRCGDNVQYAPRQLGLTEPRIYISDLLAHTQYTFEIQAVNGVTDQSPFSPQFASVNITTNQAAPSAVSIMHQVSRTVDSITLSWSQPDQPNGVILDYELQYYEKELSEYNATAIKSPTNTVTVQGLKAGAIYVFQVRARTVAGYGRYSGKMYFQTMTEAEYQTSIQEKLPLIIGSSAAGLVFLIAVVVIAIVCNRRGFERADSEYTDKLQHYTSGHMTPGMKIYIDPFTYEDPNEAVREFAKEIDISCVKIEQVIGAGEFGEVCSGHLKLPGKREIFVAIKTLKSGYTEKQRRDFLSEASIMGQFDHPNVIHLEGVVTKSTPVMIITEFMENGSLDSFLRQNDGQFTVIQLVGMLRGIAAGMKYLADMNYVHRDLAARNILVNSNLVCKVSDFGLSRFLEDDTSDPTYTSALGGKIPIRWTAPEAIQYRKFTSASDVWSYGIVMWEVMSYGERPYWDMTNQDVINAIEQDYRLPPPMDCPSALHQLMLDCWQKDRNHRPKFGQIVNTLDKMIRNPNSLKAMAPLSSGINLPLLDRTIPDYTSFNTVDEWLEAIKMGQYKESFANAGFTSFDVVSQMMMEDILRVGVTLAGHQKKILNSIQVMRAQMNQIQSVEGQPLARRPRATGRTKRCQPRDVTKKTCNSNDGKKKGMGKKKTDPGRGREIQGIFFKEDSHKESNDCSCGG
# [21] = test system: TOV112D; assay: Antitumor activity against human TOV112D cells assessed as cell growth inhibition treated for 10 to 15 days; type: functional; conditions: time 10-15 day
# [22] = target: Histone-lysine N-methyltransferase EHMT2 (Homo sapiens, UniProt Q96KQ7); assay: Inhibition of human G9a using Histone H3 (1-21 residues) and [3H]SAM as substrate incubated for 30 mins to 1 hr by HotSpot kinase assay
# Histone-lysine N-methyltransferase EHMT2, sequence (Q96KQ7 whole entry, the tested form may be a part): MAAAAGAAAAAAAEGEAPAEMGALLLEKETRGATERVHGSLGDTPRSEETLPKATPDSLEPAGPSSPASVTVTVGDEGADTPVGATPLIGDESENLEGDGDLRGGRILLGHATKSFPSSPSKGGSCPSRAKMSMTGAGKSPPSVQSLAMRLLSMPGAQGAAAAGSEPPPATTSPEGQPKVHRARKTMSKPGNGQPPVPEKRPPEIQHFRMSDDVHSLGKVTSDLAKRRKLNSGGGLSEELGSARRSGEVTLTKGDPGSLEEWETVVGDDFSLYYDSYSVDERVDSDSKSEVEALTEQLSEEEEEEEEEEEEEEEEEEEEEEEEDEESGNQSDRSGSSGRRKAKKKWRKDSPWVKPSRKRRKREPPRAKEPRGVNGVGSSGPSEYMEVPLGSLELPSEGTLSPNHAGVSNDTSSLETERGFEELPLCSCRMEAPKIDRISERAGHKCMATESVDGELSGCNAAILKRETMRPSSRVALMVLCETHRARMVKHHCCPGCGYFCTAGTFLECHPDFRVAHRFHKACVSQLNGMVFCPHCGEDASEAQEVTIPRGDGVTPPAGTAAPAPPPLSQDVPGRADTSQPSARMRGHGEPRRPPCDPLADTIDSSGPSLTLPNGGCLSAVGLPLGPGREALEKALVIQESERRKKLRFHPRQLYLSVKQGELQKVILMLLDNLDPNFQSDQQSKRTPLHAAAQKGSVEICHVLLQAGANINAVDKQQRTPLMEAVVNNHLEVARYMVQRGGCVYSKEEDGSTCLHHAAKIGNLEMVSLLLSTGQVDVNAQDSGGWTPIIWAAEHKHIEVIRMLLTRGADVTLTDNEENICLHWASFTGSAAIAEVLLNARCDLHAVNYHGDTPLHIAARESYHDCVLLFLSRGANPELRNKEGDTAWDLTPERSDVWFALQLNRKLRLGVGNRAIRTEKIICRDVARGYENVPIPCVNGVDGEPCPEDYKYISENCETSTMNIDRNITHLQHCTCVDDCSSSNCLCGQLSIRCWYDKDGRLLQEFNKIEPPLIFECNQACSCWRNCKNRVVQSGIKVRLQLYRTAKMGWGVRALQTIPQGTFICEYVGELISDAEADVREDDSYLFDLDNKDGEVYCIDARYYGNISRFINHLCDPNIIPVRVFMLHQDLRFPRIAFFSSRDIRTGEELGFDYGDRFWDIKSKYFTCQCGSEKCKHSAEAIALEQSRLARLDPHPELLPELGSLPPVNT
# [23] = test system: Hs 766; assay: Antitumor activity against human Hs766T cells assessed as cell growth inhibition treated for 10 to 15 days; type: functional; conditions: time 10-15 day
# [24] = test system: SK-ES1; assay: Antitumor activity against human SK-ES1 cells assessed as cell growth inhibition treated for 10 to 15 days; type: functional; conditions: time 10-15 day
# [25] = test system: MCF7; assay: Antitumor activity against human MCF7 cells assessed as cell growth inhibition treated for 10 to 15 days; type: functional; conditions: time 10-15 day
# [26] = test system: RL; assay: Antitumor activity against human RL cells assessed as cell growth inhibition treated for 10 to 15 days; type: functional; conditions: time 10-15 day
# [27] = test system: SUD4; assay: Antitumor activity against human SU-DHL-4 cells assessed as cell growth inhibition treated for 10 to 15 days; type: functional; conditions: time 10-15 day
structure (smiles),measurement,setting,value
Cc1cc(C)c(CNC(=O)c2cc(Br)c3c(c2C)O[C@@](C)([C@H]2CC[C@H](N(C)C)CC2)O3)c(=O)[nH]1,Activity,[1],1.55 g/dL
same,Activity,[2],71.8 U/L
same,Activity,[3],90 mg/dL
Cc1cc(C)c(CNC(=O)c2cc(Cl)c3c(c2C)O[C@@](C)([C@H]2CC[C@H](N(C)C)CC2)O3)c(=O)[nH]1 [VALEMETOSTAT],GI50,[4],> 1000 nM
same,IC50,[5],100000 nM
same,GI50,[6],> 1000 nM
same,GI50,[7],> 1000 nM
same,GI50,[8],24.7 nM
same,GI50,[9],13.1 nM
same,GI50,[10],37.7 nM
same,GI50,[11],> 1000 nM
same,inhibition,[12],-9%
same,GI50,[13],> 1000 nM
same,GI50,[14],6.56 nM
same,GI50,[15],> 1000 nM
same,GI50,[16],788 nM
same,GI50,[17],952 nM
same,IC50,[18],100000 nM
same,IC50,[19],100000 nM
same,inhibition,[20],-6.2%
same,GI50,[21],15.4 nM
same,IC50,[22],100000 nM
same,GI50,[23],> 1000 nM
same,GI50,[24],> 1000 nM
same,GI50,[25],> 1000 nM
same,GI50,[26],> 1000 nM
same,GI50,[27],55.5 nM
